PubChem BioAssay AID2060615 (Molecular Pharmacology Branch, DTP, NCI, 2025)
pIC50: −log10 of the molar value.

Tested on: 496974-208-R-J2-PDC complex spheroids, growth % test/control
Assay: Anticancer human tumor 496974-208-R-J2-PDC patient-derived pancreatic carcinoma cell line growth inhibition [CLK]
Settings: for pIC50: curve of first compound; for viability, T/C: stronger effect = lower value; active = viability on the fitted dose curve at most 10% of control; inactive = the rest
Method in brief: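 Patient-derived tumor cells grown as complex spheroids with HUVEC endothelial cells and mesenchymal stem cells, treated with drug combinations. Concentrations descend in half-log steps from near clinical Cmax, or from 10 microM if Cmax unknown.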

[1] = second compound 0.0316 µM, first compound 0.00949 µM
[2] = second compound 0.0316 µM, first compound 0.03 µM
[3] = second compound 0.0316 µM, first compound 0.0949 µM
[4] = second compound 0.0316 µM, first compound 0.3 µM
[5] = second compound 0.1 µM, first compound 0.00949 µM
[6] = second compound 0.1 µM, first compound 0.03 µM
[7] = second compound 0.1 µM, first compound 0.0949 µM
[8] = second compound 0.1 µM, first compound 0.3 µM
[9] = second compound 0.316 µM, first compound 0.00949 µM
[10] = second compound 0.316 µM, first compound 0.03 µM
[11] = second compound 0.316 µM, first compound 0.0949 µM
[12] = second compound 0.316 µM, first compound 0.3 µM
[13] = second compound 1 µM, first compound 0.00949 µM
[14] = second compound 1 µM, first compound 0.03 µM
[15] = second compound 1 µM, first compound 0.0949 µM
[16] = second compound 1 µM, first compound 0.3 µM
[17] = second compound 3.16 µM, first compound 0.00949 µM
[18] = second compound 3.16 µM, first compound 0.03 µM
[19] = second compound 3.16 µM, first compound 0.0949 µM
[20] = second compound 3.16 µM, first compound 0.3 µM
[21] = second compound 10 µM, first compound 0.00949 µM
[22] = second compound 10 µM, first compound 0.03 µM
[23] = second compound 10 µM, first compound 0.0949 µM
[24] = second compound 10 µM, first compound 0.3 µM
[25] = second compound 0.0316 µM, first compound 0.0316 µM
[26] = second compound 0.0316 µM, first compound 0.1 µM
[27] = second compound 0.0316 µM, first compound 0.316 µM
[28] = second compound 0.0316 µM, first compound 1 µM
[29] = second compound 0.0316 µM, first compound 3.16 µM
[30] = second compound 0.0316 µM, first compound 10 µM
[31] = second compound 0.1 µM, first compound 0.0316 µM
[32] = second compound 0.1 µM, first compound 0.1 µM
[33] = second compound 0.1 µM, first compound 0.316 µM
[34] = second compound 0.1 µM, first compound 1 µM
[35] = second compound 0.1 µM, first compound 3.16 µM
[36] = second compound 0.1 µM, first compound 10 µM
[37] = second compound 0.316 µM, first compound 0.0316 µM
[38] = second compound 0.316 µM, first compound 0.1 µM
[39] = second compound 0.316 µM, first compound 0.316 µM
[40] = second compound 0.316 µM, first compound 1 µM
[41] = second compound 0.316 µM, first compound 3.16 µM
[42] = second compound 0.316 µM, first compound 10 µM
[43] = second compound 1 µM, first compound 0.0316 µM
[44] = second compound 1 µM, first compound 0.1 µM
[45] = second compound 1 µM, first compound 0.316 µM
[46] = second compound 1 µM, first compound 1 µM
[47] = second compound 1 µM, first compound 3.16 µM
[48] = second compound 1 µM, first compound 10 µM
[49] = second compound 3.16 µM, first compound 0.0316 µM
[50] = second compound 3.16 µM, first compound 0.1 µM
[51] = second compound 3.16 µM, first compound 0.316 µM
[52] = second compound 3.16 µM, first compound 1 µM
[53] = second compound 3.16 µM, first compound 3.16 µM
[54] = second compound 3.16 µM, first compound 10 µM
[55] = second compound 10 µM, first compound 0.0316 µM
[56] = second compound 10 µM, first compound 0.1 µM
[57] = second compound 10 µM, first compound 0.316 µM
[58] = second compound 10 µM, first compound 1 µM
[59] = second compound 10 µM, first compound 3.16 µM
[60] = second compound 10 µM, first compound 10 µM
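Also: spheroids exposed to the drugs for 7 days before readout.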
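For viability, T/C in this document: 100% = DMSO vehicle control wells.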

C=CC(=O)Nc1cc(Nc2nccc(-c3cn(C)c4ccccc34)n2)c(OC)cc1N(C)CCN(C)C + CNC(=O)c1ccc(Nc2nc(OC3CCCC3)c3c(-c4ccc5nc(C)oc5c4)c[nH]c3n2)c(OC)c1
inactive: viability, T/C (second compound 0.0316 µM, first compound 0.000949 µM) 108% | viability, T/C (second compound 0.0316 µM, first compound 0.003 µM) 99.3% | viability, T/C [1] 88% | viability, T/C [2] 96.5% | viability, T/C [3] 90.2% | viability, T/C [4] 71.7% | viability, T/C (second compound 0.1 µM, first compound 0.000949 µM) 80.6% | viability, T/C (second compound 0.1 µM, first compound 0.003 µM) 89.5% | viability, T/C [5] 67.1% | viability, T/C [6] 72.8% | viability, T/C [7] 70% | viability, T/C [8] 53.1% | viability, T/C (second compound 0.316 µM, first compound 0.000949 µM) 81.1% | viability, T/C (second compound 0.316 µM, first compound 0.003 µM) 77.4% | viability, T/C [9] 85.2% | viability, T/C [10] 74.5% | viability, T/C [11] 60.4% | viability, T/C [12] 51.2% | viability, T/C (second compound 1 µM, first compound 0.000949 µM) 76.7% | viability, T/C (second compound 1 µM, first compound 0.003 µM) 70.2% | viability, T/C [13] 66% | viability, T/C [14] 65.1% | viability, T/C [15] 57.2% | viability, T/C [16] 40.9% | viability, T/C (second compound 3.16 µM, first compound 0.000949 µM) 63.4% | viability, T/C (second compound 3.16 µM, first compound 0.003 µM) 64.1% | viability, T/C [17] 65.6% | viability, T/C [18] 57.8% | viability, T/C [19] 51.7% | viability, T/C [20] 41.1% | viability, T/C (second compound 10 µM, first compound 0.000949 µM) 60.3% | viability, T/C (second compound 10 µM, first compound 0.003 µM) 57.9% | viability, T/C [21] 57.5% | viability, T/C [22] 51.3% | viability, T/C [23] 51.4% | viability, T/C [24] 30.4%
6.91: pIC50 (second compound 3.16 µM)
< 6.52: pIC50 (second compound 0.0316 µM) | pIC50 (second compound 0.1 µM) | pIC50 (second compound 0.316 µM)
7.12: pIC50 (second compound 10 µM)
6.82: pIC50 (second compound 1 µM)

CC1(C)CCC(CN2CCN(c3ccc(C(=O)NS(=O)(=O)c4ccc(NCC5CCOCC5)c([N+](=O)[O-])c4)c(Oc4cnc5[nH]ccc5c4)c3)CC2)=C(c2ccc(Cl)cc2)C1 + CNC(=O)c1ccc(Nc2nc(OC3CCCC3)c3c(-c4ccc5nc(C)oc5c4)c[nH]c3n2)c(OC)c1
5.08: pIC50 (second compound 0.0316 µM)
5.41: pIC50 (second compound 10 µM)
5.39: pIC50 (second compound 3.16 µM)
5.15: pIC50 (second compound 0.1 µM)
5.03: pIC50 (second compound 0.316 µM)
inactive: viability, T/C [25] 87.7% | viability, T/C [26] 93.6% | viability, T/C [27] 86.4% | viability, T/C [28] 92.4% | viability, T/C [29] 84.4% | viability, T/C [30] 43.8% | viability, T/C [31] 75.1% | viability, T/C [32] 73.3% | viability, T/C [33] 76.8% | viability, T/C [34] 82.8% | viability, T/C [35] 72.8% | viability, T/C [36] 39.9% | viability, T/C [37] 75.8% | viability, T/C [38] 76.2% | viability, T/C [39] 73.6% | viability, T/C [40] 85.3% | viability, T/C [41] 71% | viability, T/C [42] 48.5% | viability, T/C [43] 71% | viability, T/C [44] 71.7% | viability, T/C [45] 73.5% | viability, T/C [46] 67.3% | viability, T/C [47] 61.1% | viability, T/C [48] 39.5% | viability, T/C [49] 59.5% | viability, T/C [50] 56.2% | viability, T/C [51] 61.5% | viability, T/C [52] 62.5% | viability, T/C [53] 52.6% | viability, T/C [54] 35.5% | viability, T/C [55] 55.8% | viability, T/C [56] 55.2% | viability, T/C [57] 54.3% | viability, T/C [58] 50.1% | viability, T/C [59] 54.4% | viability, T/C [60] 32.9%
5.25: pIC50 (second compound 1 µM)

NC(=O)C(=Cn1cnc(-c2cc(C(F)(F)F)cc(C(F)(F)F)c2)n1)c1cncnc1 + CNC(=O)c1ccc(Nc2nc(OC3CCCC3)c3c(-c4ccc5nc(C)oc5c4)c[nH]c3n2)c(OC)c1
> 8.02: pIC50 (second compound 0.316 µM) | pIC50 (second compound 1 µM) | pIC50 (second compound 3.16 µM) | pIC50 (second compound 10 µM)
7.09: pIC50 (second compound 0.1 µM)
inactive: viability, T/C [1] 83.3% | viability, T/C [2] 77.3% | viability, T/C [3] 65.1% | viability, T/C [4] 31.4% | viability, T/C (second compound 0.0316 µM, first compound 0.949 µM) 20.5% | viability, T/C (second compound 0.0316 µM, first compound 3 µM) 14.1% | viability, T/C [5] 68.5% | viability, T/C [6] 56.3% | viability, T/C [7] 52% | viability, T/C [8] 27.9% | viability, T/C (second compound 0.1 µM, first compound 0.949 µM) 20.9% | viability, T/C (second compound 0.1 µM, first compound 3 µM) 16.8% | viability, T/C [9] 47.2% | viability, T/C [10] 48.6% | viability, T/C [11] 43.9% | viability, T/C [12] 21.4% | viability, T/C (second compound 0.316 µM, first compound 0.949 µM) 18.8% | viability, T/C (second compound 0.316 µM, first compound 3 µM) 12.4% | viability, T/C [13] 46.6% | viability, T/C [14] 40.6% | viability, T/C [15] 29.8% | viability, T/C [16] 16.1% | viability, T/C (second compound 1 µM, first compound 0.949 µM) 14.3% | viability, T/C (second compound 1 µM, first compound 3 µM) 9.67% | viability, T/C [17] 44.9% | viability, T/C [18] 28.7% | viability, T/C [19] 20.2% | viability, T/C [20] 12.1% | viability, T/C [21] 39.4% | viability, T/C [22] 28.8% | viability, T/C [23] 19.1% | viability, T/C [24] 9.35%
6.80: pIC50 (second compound 0.0316 µM)
active: viability, T/C (second compound 3.16 µM, first compound 0.949 µM) 10.8% | viability, T/C (second compound 3.16 µM, first compound 3 µM) 5.23% | viability, T/C (second compound 10 µM, first compound 0.949 µM) 8.25% | viability, T/C (second compound 10 µM, first compound 3 µM) 3.76%

Nc1ccccc1NC(=O)c1ccc(CNC(=O)OCc2cccnc2)cc1 + CNC(=O)c1ccc(Nc2nc(OC3CCCC3)c3c(-c4ccc5nc(C)oc5c4)c[nH]c3n2)c(OC)c1
5.34: pIC50 (second compound 0.0316 µM) | pIC50 (second compound 0.1 µM)
inactive: viability, T/C [25] 92.7% | viability, T/C [26] 92.8% | viability, T/C [27] 89.9% | viability, T/C [28] 78% | viability, T/C [29] 75.3% | viability, T/C [31] 81.8% | viability, T/C [32] 72.5% | viability, T/C [33] 66.3% | viability, T/C [34] 61.4% | viability, T/C [35] 73.6% | viability, T/C [37] 78.6% | viability, T/C [38] 72.9% | viability, T/C [39] 74.2% | viability, T/C [40] 56.1% | viability, T/C [41] 69.2% | viability, T/C [43] 69.1% | viability, T/C [44] 65.1% | viability, T/C [45] 67.8% | viability, T/C [46] 58.5% | viability, T/C [47] 68.6% | viability, T/C [49] 63.5% | viability, T/C [50] 59.2% | viability, T/C [51] 55% | viability, T/C [52] 49.7% | viability, T/C [53] 53.5% | viability, T/C [55] 60.2% | viability, T/C [56] 53.4% | viability, T/C [57] 52.1% | viability, T/C [58] 42.9% | viability, T/C [59] 53.2%
5.48: pIC50 (second compound 3.16 µM) | pIC50 (second compound 10 µM)
active: viability, T/C [30] 0.72% | viability, T/C [36] 3.35% | viability, T/C [42] 1.48% | viability, T/C [48] 3% | viability, T/C [54] 4.03% | viability, T/C [60] 4.38%
5.37: pIC50 (second compound 1 µM)
5.36: pIC50 (second compound 0.316 µM)
